Reference: patent US9198900B2, “Treatment of peritoneal injury using JAK inhibitors” (Los Angeles Biomedical Research Institute at Harbor-UCLA …, priority 2011, dated 2015)

Legend:
[1] = test system: human peritoneal mesothelial cells; conditions: cultured human peritoneal mesothelial cells; cited from earlier work
JAK/STAT signaling = assay: Mesothelial cell exposure to heated PDF in vitro (immunoblot); format: cell-based, human
Protocol: Mesothelial cell exposure to heated PDF in vitro activated JAK/STAT signaling and induced the STAT-associated protein periostin. Heat-sterilization of PDF generates GDPs. A commercially available immortalized human mesothelial cell line was cultured in standard medium, then switched to control medium or heat-sterilized PDF (30:70, medium:PDF)×4 hrs. Heated PDF induced STAT1 phosphorylation, and the pan-JAKi P6 attenuated this (immunoblot doublet, FIG. 1A). After 24 hrs, P6 also attenuated the secretion of the injurious STAT-associated protein periostin into the medium (immunoblot triplet, FIG. 1B). Five characteristics of periostin make it an attractive marker of Pbarrier injury. 1) Periostin is a marker and mediator for the adoption of a mesenchymal phenotype by injured or transformed epithelial cells^73-75. 2) It participates in fibrous healing^76. Others show periostin in the Pbarrier of patients with fibrosis and encapsulating peritoneal sclerosis (Braun et al, ASN poster, 2011). 3) Periostin supports neovascularization^77. 4) It has a bidirectional regulatory relationship with TGF-β^78. 5) It's promoter region has STAT1 and 5 binding sites (www|.|sabiosciences|.|com/chipqpersearch.php?species_id=0&nfactor=n&ninfo=n&ngene=n&B2=Search&src=genecard&factor=Over+200+TF&gene=POSTN). Thus, we can use periostin to affirm JAK/STAT signaling and mesothelial dedifferentiation.

peritoneal membrane = assay: Rat PD with 4.25% Dianeal (biPDF), peritoneal histology; format: in vivo; conditions: rats undergoing PD with bioincompatible PDF (biPDF), compared to placebo
Text: In rats, 10 days of PD with 4.25% Dianeal induced mesothelial cell reactive hyperplasia, fibrosis, inflammation, and JAK1 phosphorylation, all of which are attenuated by a JAK1/2 inhibitor. Visceral and parietal peritoneum respond to biPDF differently^33, 88, so only like tissues were compared across treatments.

Met-5A cells = assay: Cleaved caspase-3 Western blot after exposure to peritoneal dialysis fluid; format: cell-based; conditions: 250 nM P6, 24 h; heated PDF, F-PDF, Low GDP-FPDF; FIG. 5N
Protocol: Methods: Met-5A cells were incubated with heated peritoneal dialysis fluid (PDF), filtered (F-PDF) and Low GDP-FPDF with or without 250 nM JAK inhibitor (Jaki) P6, and cells were harvested at 24 h for measuring cleaved caspase-3 by Western blot as an indication of cell death. 100 μg of cell lysate was separated on a 8-16% SDS polyacrylamide gel. Proteins were transferred onto a nitrocellulose membrane, blocked with 5% BSA in TBST and incubated with primary anti-cleaved caspase-3 antibody (1; 1000, Cell Signaling) overnight. After incubation with a HRP conjugated anti-rabbit antibody (1:1500, GE Healthcare UK Ltd, Piscataway, N.J.), protein bands were visualized by chemiluminiscence (Thermo Scientific). GAPDH serves as an internal control.

SMILES | leptin-induced TGFβ synthesis [1] | secretion of the STAT-associated protein periostin into the medium (JAK/STAT signaling; heated PDF, after 24 hrs, FIG. 1B) | STAT1 phosphorylation induced by heated PDF (JAK/STAT signaling; immortalized human mesothelial cell line, heat-sterilized PDF (30:70, medium:PDF) x 4 hrs, FIG. 1A) | structural integrity of the peritoneal membrane (peritoneal membrane) | caspase-3 cleavage induced by PDF (indication of cell death) (Met-5A cells)
N#C/C(=C\c1ccc(O)c(O)c1)C(=O)NCc1ccccc1 [AG-490] | abolished |  |  |  | 
CC(C)(C)c1nc2c3cc[nH]c(=O)c3c3cc(F)ccc3c2[nH]1 [P6] |  | attenuated | attenuated | preserved | reduced
